From the supplement of paper PMC11451515

How the values were obtained:
Conditions in all cases: 48 h
[1] = system: SEM cells; experiment: AUC of viability dose-response curve (% viability x log10 dose units); higher = less sensitive
Method in brief: (§1)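 Leukemia cells adapted to each medium (500 or 1000 cells/well, 1536-well plates) were exposed to library compounds in DMSO for 48 h at 37°C at 11 threefold doses, 47 μM to 0.79 nM. Luminescence by CellTiter-Glo One was normalised per plate to DMSO and cell-free wells, then fitted with a four-parameter log-logistic curve on log10 dose. Curves above full viability were scaled and quality-control failures removed before area under the curve was integrated by trapezoidal rule.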

[2] = system: P12-Ichikawa; experiment: as above
Method in brief: as §1

[3] = system: NOMO1; experiment: as above
Method in brief: as §1

[4] = system: SEM cells; experiment: cell viability relative to DMSO control; higher = less cytotoxic
Method in brief: (§2)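 Viability was expressed as a per-plate percentage of DMSO wells, with cell-free wells as background. Leukemia cells (NOMO1 or SEM at 500 cells/well, P12-Ichikawa at 1000 cells/well) were adapted for at least four passages in each medium and seeded in 1536-well plates (5 μl). Library compounds in DMSO were pin-dosed over an 11-point threefold series from 47 μM to 0.79 nM, and CellTiter-Glo One luminescence was read after 48 h at 37°C.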

[5] = system: P12-Ichikawa; experiment: as above
Method in brief: as §2

[6] = system: NOMO1; experiment: as above
Method in brief: as §2

O=C(O)[C@H](Cc1c[nH]c2ccccc12)N1C(=O)c2ccccc2C1=O
AUC of viability dose-response curve
Conditions | [1] | [2] | [3]
HPLM + 10% dialyzed FBS | 445 | 474 | 440
RPMI 5 mM glucose + 10% FBS | 440 | 462 | 426
RPMI 5 mM glucose + 10% dialyzed FBS | 405 | 460 | 470

cell viability [%]
Conditions | [4] | [5] | [6]
HPLM + 10% dialyzed FBS, 0.000781 µM | 85.2 | 98.3 | 96.1
HPLM + 10% dialyzed FBS, 0.00234 µM | 63.5 | 109 | 107
HPLM + 10% dialyzed FBS, 0.00702 µM | 96.4 | 104 | 103
HPLM + 10% dialyzed FBS, 0.0211 µM | 92.4 | 106 | 99.4
HPLM + 10% dialyzed FBS, 0.0632 µM | 99.3 | 99.5 | 110
HPLM + 10% dialyzed FBS, 0.19 µM | 102 | 99.8 | 91.5
HPLM + 10% dialyzed FBS, 0.569 µM | 91.7 | 105 | 90.8
HPLM + 10% dialyzed FBS, 1.71 µM | 97.8 | 110 | 103
HPLM + 10% dialyzed FBS, 5.12 µM | 105 | 103 | 119
HPLM + 10% dialyzed FBS, 15.4 µM | 99.4 | 102 | 99.6
HPLM + 10% dialyzed FBS, 46.1 µM | 83.8 | 99.3 | 117
RPMI 5 mM glucose + 10% FBS, 0.000781 µM | 99.1 | 89.6 | 89.8
RPMI 5 mM glucose + 10% FBS, 0.00234 µM | 52.9 | 91.9 | 83.3
RPMI 5 mM glucose + 10% FBS, 0.00702 µM | 105 | 91.3 | 97
RPMI 5 mM glucose + 10% FBS, 0.0211 µM | 112 | 93.4 | 89.1
RPMI 5 mM glucose + 10% FBS, 0.0632 µM | 100 | 98.3 | 87.9
RPMI 5 mM glucose + 10% FBS, 0.19 µM | 108 | 103 | 80.8
RPMI 5 mM glucose + 10% FBS, 0.569 µM | 90.7 | 103 | 89.3
RPMI 5 mM glucose + 10% FBS, 1.71 µM | 93.3 | 97 | 97.1
RPMI 5 mM glucose + 10% FBS, 5.12 µM | 92 | 101 | 90.4
RPMI 5 mM glucose + 10% FBS, 15.4 µM | 84.8 | 101 | 92.3
RPMI 5 mM glucose + 10% FBS, 46.1 µM | 77.4 | 94.3 | 86.1
RPMI 5 mM glucose + 10% dialyzed FBS, 0.000781 µM | 89.8 | 91.2 | 92.5
RPMI 5 mM glucose + 10% dialyzed FBS, 0.00234 µM | 41.9 | 90.5 | 99.1
RPMI 5 mM glucose + 10% dialyzed FBS, 0.00702 µM | 96.4 | 91.8 | 104
RPMI 5 mM glucose + 10% dialyzed FBS, 0.0211 µM | 94.8 | 102 | 101
RPMI 5 mM glucose + 10% dialyzed FBS, 0.0632 µM | 83.8 | 94.4 | 98.7
RPMI 5 mM glucose + 10% dialyzed FBS, 0.19 µM | 87.4 | 99.5 | 94.1
RPMI 5 mM glucose + 10% dialyzed FBS, 0.569 µM | 99.3 | 99 | 100
RPMI 5 mM glucose + 10% dialyzed FBS, 1.71 µM | 84.7 | 105 | 101
RPMI 5 mM glucose + 10% dialyzed FBS, 5.12 µM | 97.1 | 95 | 103
RPMI 5 mM glucose + 10% dialyzed FBS, 15.4 µM | 81.9 | 98.6 | 99.6
RPMI 5 mM glucose + 10% dialyzed FBS, 46.1 µM | 68 | 92.2 | 83.3

CC1(C)[C@@H](O[C@H]2O[C@H](C(=O)O)[C@@H](O)[C@H](O)[C@H]2O[C@@H]2O[C@H](C(=O)O)[C@@H](O)[C@H](O)[C@H]2O)CC[C@]2(C)[C@H]3C(=O)C=C4[C@@H]5C[C@@](C)(C(=O)O)CC[C@]5(C)CC[C@@]4(C)[C@]3(C)CC[C@@H]12
AUC of viability dose-response curve
Conditions | [1] | [2] | [3]
HPLM + 10% dialyzed FBS | 383 | 473 | 407
RPMI 5 mM glucose + 10% FBS | 437 | 468 | 455
RPMI 5 mM glucose + 10% dialyzed FBS | 450 | 470 | 452

cell viability [%]
Conditions | [4] | [5] | [6]
HPLM + 10% dialyzed FBS, 0.000781 µM | 116 | 112 | –
HPLM + 10% dialyzed FBS, 0.00234 µM | 113 | 130 | –
HPLM + 10% dialyzed FBS, 0.00702 µM | 117 | 118 | –
HPLM + 10% dialyzed FBS, 0.0211 µM | 104 | 132 | –
HPLM + 10% dialyzed FBS, 0.0632 µM | 145 | 128 | –
HPLM + 10% dialyzed FBS, 0.19 µM | 114 | 131 | –
HPLM + 10% dialyzed FBS, 0.569 µM | 143 | 136 | –
HPLM + 10% dialyzed FBS, 1.71 µM | 128 | 128 | –
HPLM + 10% dialyzed FBS, 5.12 µM | 150 | 123 | –
HPLM + 10% dialyzed FBS, 15.4 µM | 165 | 128 | –
HPLM + 10% dialyzed FBS, 46.1 µM | 163 | 135 | –
RPMI 5 mM glucose + 10% dialyzed FBS, 0.000781 µM | – | – | 109
RPMI 5 mM glucose + 10% dialyzed FBS, 0.00234 µM | – | – | 123
RPMI 5 mM glucose + 10% dialyzed FBS, 0.00702 µM | – | – | 134
RPMI 5 mM glucose + 10% dialyzed FBS, 0.0211 µM | – | – | 142
RPMI 5 mM glucose + 10% dialyzed FBS, 0.0632 µM | – | – | 154
RPMI 5 mM glucose + 10% dialyzed FBS, 0.19 µM | – | – | 145
RPMI 5 mM glucose + 10% dialyzed FBS, 0.569 µM | – | – | 136
RPMI 5 mM glucose + 10% dialyzed FBS, 1.71 µM | – | – | 160
RPMI 5 mM glucose + 10% dialyzed FBS, 5.12 µM | – | – | 154
RPMI 5 mM glucose + 10% dialyzed FBS, 15.4 µM | – | – | 140
RPMI 5 mM glucose + 10% dialyzed FBS, 46.1 µM | – | – | 161

COc1cc2ncnc(-n3nc(-c4ccccn4)nc3N)c2cc1OC
AUC of viability dose-response curve
Conditions | [1] | [2] | [3]
HPLM + 10% dialyzed FBS | 360 | 447 | 437
RPMI 5 mM glucose + 10% FBS | 326 | 436 | 406
RPMI 5 mM glucose + 10% dialyzed FBS | 317 | 413 | 418

cell viability [%]
Conditions | [4] | [5] | [6]
HPLM + 10% dialyzed FBS, 0.000781 µM | 75.1 | 93.6 | 82.3
HPLM + 10% dialyzed FBS, 0.00234 µM | 95.7 | 97.9 | 102
HPLM + 10% dialyzed FBS, 0.00702 µM | 96.7 | 102 | 111
HPLM + 10% dialyzed FBS, 0.0211 µM | 94.2 | 99.7 | 101
HPLM + 10% dialyzed FBS, 0.0632 µM | 94.9 | 95.9 | 110
HPLM + 10% dialyzed FBS, 0.19 µM | 103 | 103 | 93.7
HPLM + 10% dialyzed FBS, 0.569 µM | 79.3 | 105 | 95.2
HPLM + 10% dialyzed FBS, 1.71 µM | 83.7 | 104 | 112
HPLM + 10% dialyzed FBS, 5.12 µM | 35 | 88.5 | 86.3
HPLM + 10% dialyzed FBS, 15.4 µM | 45 | 96 | 74.8
HPLM + 10% dialyzed FBS, 46.1 µM | 1.68 | 0.508 | 0.936
RPMI 5 mM glucose + 10% FBS, 0.000781 µM | 105 | 89.2 | 83.5
RPMI 5 mM glucose + 10% FBS, 0.00234 µM | 103 | 100 | 86.2
RPMI 5 mM glucose + 10% FBS, 0.00702 µM | 114 | 98.6 | 92.7
RPMI 5 mM glucose + 10% FBS, 0.0211 µM | 100 | 101 | 101
RPMI 5 mM glucose + 10% FBS, 0.0632 µM | 85.8 | 98 | 88.6
RPMI 5 mM glucose + 10% FBS, 0.19 µM | 106 | 105 | 96.3
RPMI 5 mM glucose + 10% FBS, 0.569 µM | 91.2 | 107 | 84.9
RPMI 5 mM glucose + 10% FBS, 1.71 µM | 39.1 | 102 | 99.3
RPMI 5 mM glucose + 10% FBS, 5.12 µM | 3.56 | 78 | 84.7
RPMI 5 mM glucose + 10% FBS, 15.4 µM | 1.61 | 82.7 | 78
RPMI 5 mM glucose + 10% FBS, 46.1 µM | 1.33 | 0.293 | 1.29
RPMI 5 mM glucose + 10% dialyzed FBS, 0.000781 µM | 83.2 | 83.8 | 82.5
RPMI 5 mM glucose + 10% dialyzed FBS, 0.00234 µM | 93.8 | 92.6 | 89.4
RPMI 5 mM glucose + 10% dialyzed FBS, 0.00702 µM | 95.1 | 90 | 93
RPMI 5 mM glucose + 10% dialyzed FBS, 0.0211 µM | 85.7 | 81.6 | 110
RPMI 5 mM glucose + 10% dialyzed FBS, 0.0632 µM | 81.9 | 93.2 | 98.4
RPMI 5 mM glucose + 10% dialyzed FBS, 0.19 µM | 99.8 | 107 | 96.7
RPMI 5 mM glucose + 10% dialyzed FBS, 0.569 µM | 83.6 | 96.2 | 98.5
RPMI 5 mM glucose + 10% dialyzed FBS, 1.71 µM | 65.7 | 101 | 94.5
RPMI 5 mM glucose + 10% dialyzed FBS, 5.12 µM | 9.89 | 82.6 | 81.8
RPMI 5 mM glucose + 10% dialyzed FBS, 15.4 µM | 11.4 | 82.9 | 76.4
RPMI 5 mM glucose + 10% dialyzed FBS, 46.1 µM | 1.21 | 0.35 | 3.64
